One data set deals with T1, JAK1 (Homo sapiens, UniProt P23458).
T1 construct: purchased Carna Biosciences
Description: JAK1 microfluidic kinase assay (Caliper EZ Reader II, FAM labeled peptide substrate). It is filed as biochemical. Put shortly: (§1)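 Microfluidic mobility-shift assay on Caliper EZ Reader II, FAM-labelled peptide phosphorylation, in 50 mM HEPES, 0.01% Brij35, 10 mM MgCl2, 2 mM DTT, 1% DMSO; enzyme conditions set for 10% substrate conversion.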

Data set [1] in a line: Liver microsomes study, Phase I stability (HLM). It is filed as in vitro ADME, human. To be noted: pH 7.4. The method, then: (§2) Commercially available liver microsomes (MsLM vendor: XENOTECH; RLM, DLM, MkL, HLM vendor: Corning) were used for study the Phase I stability of test articles. […] The reaction was initiated by addition of 80 μL of the NADPH regenerating system to 320 µL of each incubation mixture per time point. […] The 0-minute samples were prepared by addition of an 80 μL aliquot of each incubation mixture to 400 μL quench reagent to precipitate proteins. And then a 20 μL aliquot of the NADPH regenerating system was added. At 10, 30, and 90 minutes, the reaction will be stopped by the addition of cold acetonitrile solution containing tolbutamide and propanolol served as internal standard. The samples taken at all time points were centrifuged at 4000×g for 15 minutes. 80 μL of supernatant are taken into 96-well assay plates pre-added with 160 μL ultrapure water, and then analyzed by LC/MS/MS(Shimadzu LC30AD & API4000/API5000)). Concentrations of test articles, control compounds in the samples were determined by using LC/MS/MS) method. Plotting of the chromatograms and peak area integrations are carried out by Analyst (AB Sciex).
(§3) In the determination of the in vitro elimination constant, ke, of the control compounds, the analyte/internal standard peak area ratios will be converted to percentage remaining (% Remaining) with the following equation: […]
(§4) The slope was measured by the natural logarithm of the percentage of the residual compound and time, T½ and CLint were calculated according to the following formulas, V/M was equal to the 1/concentration of protein.

The target in a further data set is T2, JAK2 (Homo sapiens, UniProt O60674).
T2 construct: purchased Carna Biosciences
T2 sequence (O60674 whole entry): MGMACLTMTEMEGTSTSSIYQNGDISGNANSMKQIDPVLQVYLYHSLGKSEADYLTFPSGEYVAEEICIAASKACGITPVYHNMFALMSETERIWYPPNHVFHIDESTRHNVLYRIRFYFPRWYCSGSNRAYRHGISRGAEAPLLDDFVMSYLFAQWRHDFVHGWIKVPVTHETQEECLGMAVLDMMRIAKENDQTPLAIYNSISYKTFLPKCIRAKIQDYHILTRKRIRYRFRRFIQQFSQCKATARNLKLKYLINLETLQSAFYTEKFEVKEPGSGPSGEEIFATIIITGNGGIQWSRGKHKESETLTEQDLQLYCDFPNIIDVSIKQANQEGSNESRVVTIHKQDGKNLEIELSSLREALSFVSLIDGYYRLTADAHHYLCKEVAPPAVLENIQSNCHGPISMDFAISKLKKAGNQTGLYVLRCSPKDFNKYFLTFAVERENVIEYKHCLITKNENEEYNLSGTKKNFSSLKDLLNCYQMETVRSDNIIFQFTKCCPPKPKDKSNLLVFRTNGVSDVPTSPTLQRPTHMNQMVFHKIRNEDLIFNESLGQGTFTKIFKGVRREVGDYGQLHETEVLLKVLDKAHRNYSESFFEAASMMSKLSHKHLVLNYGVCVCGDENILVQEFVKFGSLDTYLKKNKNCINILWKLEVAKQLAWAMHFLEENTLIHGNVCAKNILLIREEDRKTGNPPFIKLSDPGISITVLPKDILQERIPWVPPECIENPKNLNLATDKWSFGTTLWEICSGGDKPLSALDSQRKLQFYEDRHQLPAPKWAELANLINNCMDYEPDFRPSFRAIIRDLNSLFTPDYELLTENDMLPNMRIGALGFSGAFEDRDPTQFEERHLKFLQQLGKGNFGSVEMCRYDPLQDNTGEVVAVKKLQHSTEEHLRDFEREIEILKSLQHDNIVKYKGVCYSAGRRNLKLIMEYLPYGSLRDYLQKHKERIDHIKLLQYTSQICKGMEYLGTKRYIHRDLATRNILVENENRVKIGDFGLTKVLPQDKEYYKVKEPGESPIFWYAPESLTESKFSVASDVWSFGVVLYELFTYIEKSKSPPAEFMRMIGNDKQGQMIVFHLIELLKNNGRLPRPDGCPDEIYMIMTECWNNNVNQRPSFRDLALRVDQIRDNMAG
Description: JAK2 microfluidic kinase assay (Caliper EZ Reader II, FAM labeled peptide substrate). It is filed as biochemical. Put shortly: as §1

The next data set has as its target T3, JAK2V617F (Homo sapiens, UniProt O60674, V617F).
T3 construct: purchased Carna Biosciences
As to the kind of experiment: JAK2V617F microfluidic kinase assay (Caliper EZ Reader II, FAM labeled peptide substrate). Type of data set: biochemical. To be noted: JAK2V617F 2.5 nM, 1 mM ATP. Put shortly:
as §1

Data set [2] is described as follows: Liver microsomes study, Phase I stability (RLM). It is filed as in vitro ADME, rat. To be noted: pH 7.4. Here is the method: as §2, §3, §4
On the technique in general: Liver microsomes are vesicles of endoplasmic reticulum, rich in cytochrome P450 enzymes.

A further data set addresses T4, TYK2 (Homo sapiens, UniProt P29597).
T4 construct: purchased Carna Biosciences
As to the kind of experiment: TYK2 microfluidic kinase assay (Caliper EZ Reader II, FAM labeled peptide substrate). Type of data set: biochemical. To be noted: IC50 TYK2 ([…]) (1 mM ATP), TYK2 […], 1 mM ATP. Here is the method: Compounds were tested against JAK1, JAK2, JAK2V617F and TYK2. Assay Formats: JAK activity was determined in the reaction buffer 50 mM HEPES, 0.01% Brij35, 10 mM MgCl2, 2 mM DTT by a microfluidic assay. The phosphorylation of a FAM labeled peptide substrate was monitored in the Caliper EZ Reader II (Perkin Elmer). The assay condition for each batch of enzyme (Carna Biosciences) was optimized to obtain 10% conversion rate of peptide substrate. The test compounds were dissolved in DMSO to a stock concentration of 10 mM. 3-fold serially diluted compounds with top concentration of 5 μM were pre-incubated with JAK1, JAK2, JAK2V617F or TYK2 at indicated concentrations for 10 min at ambient temperature. The final DMSO concentration of assay mixture was 1%. […] The reaction was stopped by adding 50 mM EDTA. The reaction time for JAK1, JAK2, JAK2V617F and TYK2 was 120 min, 20 min, 30 min and 10 min, respectively. […] And the well without compound but with equivalent DMSO was defined as no inhibition. The percent inhibition was calculated by the following formula. % Inhibition=(Conversionmax−Conversionsample)/(Conversionmax−Conversionmin)*100 • Conversionmax means the conversion rate in the positive well without addition of compound • Conversionmin means the conversion rate in the well without addition of enzyme • Conversionsample means the conversion rate of test compounds The dose-response (percent inhibition) curve was plotted and IC50 values were determined by GraphPad software.

Setting [3] is: IC50 JAK1 (5 nM) (1 m MATP), JAK1 5 nM, 1 mM ATP.
The mark [4] stands for this setting: human liver microsomes 0.5 mg/mL, 1 μM test article, read-out: HLM Clint.
Where [5] appears, read: IC50 JAK2 ([…]) (1 mM ATP), 1 mM ATP.
Where [6] appears, read: rat liver microsomes 0.5 mg/mL, 1 μM test article, read-out: RLM Clint.

The text below walks through data of patent US12595253B2, “Benzamides of pyrazolylamino-pyrimidinyl derivatives, and compositions and methods thereof” (LYNK PHARMACEUTICALS CO. LTD., priority 2019, dated 2026).

T4 sequence (P29597 whole entry): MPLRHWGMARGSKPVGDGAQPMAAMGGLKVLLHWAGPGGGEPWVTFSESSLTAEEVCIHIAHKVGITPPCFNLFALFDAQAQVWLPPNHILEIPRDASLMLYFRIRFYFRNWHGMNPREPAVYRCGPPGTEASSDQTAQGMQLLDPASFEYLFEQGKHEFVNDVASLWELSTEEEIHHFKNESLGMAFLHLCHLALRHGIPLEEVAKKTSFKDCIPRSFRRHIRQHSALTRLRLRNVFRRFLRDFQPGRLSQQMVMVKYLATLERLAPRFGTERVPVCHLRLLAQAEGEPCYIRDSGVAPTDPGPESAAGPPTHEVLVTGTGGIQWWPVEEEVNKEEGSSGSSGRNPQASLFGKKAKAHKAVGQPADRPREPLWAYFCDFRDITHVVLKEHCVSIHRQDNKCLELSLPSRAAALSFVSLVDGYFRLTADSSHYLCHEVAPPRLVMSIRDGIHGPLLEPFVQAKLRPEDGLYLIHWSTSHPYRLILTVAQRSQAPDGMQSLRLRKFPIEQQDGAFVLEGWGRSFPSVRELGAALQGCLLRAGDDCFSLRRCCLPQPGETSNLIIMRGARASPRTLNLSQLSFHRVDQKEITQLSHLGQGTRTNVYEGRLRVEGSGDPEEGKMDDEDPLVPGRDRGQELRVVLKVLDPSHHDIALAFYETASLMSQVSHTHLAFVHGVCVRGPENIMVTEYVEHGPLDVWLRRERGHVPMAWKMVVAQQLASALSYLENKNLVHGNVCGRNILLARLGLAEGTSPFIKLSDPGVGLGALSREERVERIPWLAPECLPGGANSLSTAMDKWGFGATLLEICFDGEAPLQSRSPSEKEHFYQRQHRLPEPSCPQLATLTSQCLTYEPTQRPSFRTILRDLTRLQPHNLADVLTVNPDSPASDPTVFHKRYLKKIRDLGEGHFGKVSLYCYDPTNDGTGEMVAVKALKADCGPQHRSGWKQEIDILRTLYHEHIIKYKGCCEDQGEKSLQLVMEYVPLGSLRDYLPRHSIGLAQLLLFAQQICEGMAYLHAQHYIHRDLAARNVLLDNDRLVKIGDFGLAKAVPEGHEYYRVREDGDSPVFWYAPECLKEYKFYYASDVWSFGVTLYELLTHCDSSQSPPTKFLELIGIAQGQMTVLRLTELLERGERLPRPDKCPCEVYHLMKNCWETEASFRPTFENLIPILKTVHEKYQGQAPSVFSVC
T3 sequence (O60674 whole entry V617F): as the sequence (O60674 whole entry) above, with V617F counted along it
T1 sequence (P23458 whole entry): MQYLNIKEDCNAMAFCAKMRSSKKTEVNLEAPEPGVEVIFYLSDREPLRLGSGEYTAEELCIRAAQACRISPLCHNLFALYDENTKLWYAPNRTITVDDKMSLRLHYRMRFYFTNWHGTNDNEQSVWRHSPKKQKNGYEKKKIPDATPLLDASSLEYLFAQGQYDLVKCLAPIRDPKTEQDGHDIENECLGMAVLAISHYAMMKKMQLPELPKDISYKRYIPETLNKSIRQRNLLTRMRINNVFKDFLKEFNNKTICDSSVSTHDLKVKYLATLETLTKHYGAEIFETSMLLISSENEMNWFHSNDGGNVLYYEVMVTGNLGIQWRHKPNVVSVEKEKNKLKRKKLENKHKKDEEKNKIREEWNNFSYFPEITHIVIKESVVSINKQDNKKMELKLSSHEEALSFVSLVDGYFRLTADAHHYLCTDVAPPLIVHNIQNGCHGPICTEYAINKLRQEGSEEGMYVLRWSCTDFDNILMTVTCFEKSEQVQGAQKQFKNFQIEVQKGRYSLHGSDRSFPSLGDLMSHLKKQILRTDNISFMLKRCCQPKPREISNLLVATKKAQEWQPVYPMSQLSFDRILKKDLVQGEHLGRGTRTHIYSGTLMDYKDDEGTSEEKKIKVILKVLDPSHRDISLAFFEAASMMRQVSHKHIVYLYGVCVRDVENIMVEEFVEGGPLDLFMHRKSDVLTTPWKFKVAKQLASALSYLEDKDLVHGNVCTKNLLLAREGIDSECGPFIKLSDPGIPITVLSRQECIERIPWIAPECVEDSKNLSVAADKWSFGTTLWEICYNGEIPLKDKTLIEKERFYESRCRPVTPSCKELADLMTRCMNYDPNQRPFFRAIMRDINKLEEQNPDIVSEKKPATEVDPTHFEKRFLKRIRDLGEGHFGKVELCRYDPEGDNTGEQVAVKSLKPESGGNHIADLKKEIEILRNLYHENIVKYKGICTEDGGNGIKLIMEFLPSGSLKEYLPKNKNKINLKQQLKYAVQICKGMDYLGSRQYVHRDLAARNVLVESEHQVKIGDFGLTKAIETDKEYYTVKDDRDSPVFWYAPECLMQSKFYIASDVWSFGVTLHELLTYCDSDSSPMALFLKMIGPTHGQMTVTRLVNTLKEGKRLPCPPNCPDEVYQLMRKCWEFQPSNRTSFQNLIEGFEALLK

With `COCCn1cc(Nc2ncc(Cl)c(-c3ccc(C(=O)N[C@@H](C)C#N)cc3)n2)cn1` [Example 177, (S)-4-(5-chloro-2-((1-(2-methoxyethyl)-1H-pyrazol-4-yl)amino)pyrimidin-4-yl)-N-(1-cyanoethyl)benzamide], the IC50 (usually the concentration that gives 50% inhibition) was determined as 13.5 nM against JAK1 (setting [3]), 2.74 nM against JAK2 (setting [5]) and 43.9 nM against JAK2V617F. For the same molecule, the microsomal CLint at 1 μM in data set [1] (setting [4]) turned out to be 38.7 µL/min/mg.

As to `Cc1cnc(Nc2cnn(C3CC4CCC(C3)N4CC(F)(F)F)c2)nc1-c1ccc(C(=O)NCC#N)cc1` [Example 134, N-(cyanomethyl)-4-(5-methyl-2-((1-((1R,3s,5S)-8-(2,2,2-trifluoroethyl)-8-azabicyclo[3.2.1]octan-3-yl)-1H-pyrazol-4-yl)amino)pyrimidin-4-yl)benzamide], the IC50 against JAK1 (setting [3]) was 22.4 nM; at JAK2 (setting [5]), 10.7 nM. Moreover, the microsomal CLint at 1 μM in data set [2] (rat, microsomes) came to 1950 µL/min/mg; in data set [1] (human, microsomes), 1190 µL/min/mg.

Molecule `Cc1cnc(Nc2cnn(C3CCN(C(=O)C45CC(C4)C5)CC3)c2)nc1-c1ccc(C(=O)NCC#N)cc1` [Example 114, 4-(2-((1-(1-(Bicyclo[1.1.1]pentane-1-carbonyl)piperidin-4-yl)-1H-pyrazol-4-yl)amino)-5-methylpyrimidin-4-yl)-N-(cyanomethyl)benzamide] came in with an IC50 on JAK1 (setting [3]) of 12.5 nM. The microsomal CLint at 1 μM amounted to 93.6 µL/min/mg in data set [2] (setting [6]) and 204 µL/min/mg in data set [1] (setting [4]).

As to `Cc1cnc(Nc2cnn(C3CC3)c2)nc1-c1ccc(C(=O)NCC#N)nc1` [Example 83, N-(cyanomethyl)-5-(2-((1-cyclopropyl-1H-pyrazol-4-yl)amino)-5-methylpyrimidin-4-yl)picolinamide], the IC50 was found to be 20 nM on JAK1 (setting [3]), 30.9 nM at JAK2 (setting [5]), 67.8 nM against JAK2V617F and 45.2 nM against TYK2. Besides, the microsomal CLint at 1 μM in data set [2] (setting [6]) was 26.1 µL/min/mg.

As to `CN1CCC(n2cc(Nc3ncc(Cl)c(-c4ccc(C(=O)NCC#N)cc4)n3)cn2)CC1` [Example 44, 4-(5-Chloro-2-((1-(1-methylpiperidin-4-yl)-1H-pyrazol-4-yl)amino)pyrimidin-4-yl)-N-(cyanomethyl)benzamide], the IC50 at JAK1 (setting [3]) is 6.55 nM; at JAK2 (setting [5]) it was 0.54 nM; against JAK2V617F, 5.11 nM; on TYK2, 78.7 nM. Further, the microsomal CLint at 1 μM in data set [1] (setting [4]) came out at 19.5 µL/min/mg.

Regarding `Cc1cnc(Nc2cnn(C3CCOCC3)c2)nc1-c1ccc(C(=O)N[C@@H](C)C(F)(F)F)cc1` [Example 75, (S)-4-(5-Methyl-2-((1-(tetrahydro-2H-pyran-4-yl)-1H-pyrazol-4-yl)amino)pyrimidin-4-yl)-N-(1,1,1-trifluoropropan-2-yl)benzamide], the IC50 was 12.9 nM against JAK1 (setting [3]) and 8.91 nM at JAK2V617F. The microsomal CLint at 1 μM in data set [1] (setting [4]) came to 22.6 µL/min/mg.

`C[C@@H](C#N)NC(=O)c1ccc(-c2nc(Nc3cnn(CC#N)c3)ncc2Cl)cc1` [Example 46, (S)-4-(5-Chloro-2-((1-(cyanomethyl)-1H-pyrazol-4-yl)amino)pyrimidin-4-yl)-N-(1-cyanoethyl)benzamide]: the IC50 at JAK1 (setting [3]) came out at 5.55 nM; against JAK2 (setting [5]), 25.2 nM; against JAK2V617F, 53.5 nM; on TYK2, 42.7 nM.

Consider `Cc1cnc(Nc2cnn(C)c2)nc1-c1ccc(C(=O)NCC#N)cc1` [Example 11, N-(cyanomethyl)-4-(5-methyl-2-((1-methyl-1H-pyrazol-4-yl)amino)pyrimidin-4-yl)benzamide], for which the IC50 was found to be 19.6 nM against JAK1 (setting [3]); 3.32 nM against JAK1 (IC50 JAK1 (10 nM) (Km ATP), JAK1 10 nM, Km ATP); 46.5 nM against JAK2 (setting [5]); 1.3 nM at JAK2 (IC50 JAK2 ([…]) (Km ATP), Km ATP); 115 nM on JAK2V617F; 83 nM against TYK2.

As to `C[C@@H](C#N)NC(=O)c1ccc(-c2nc(Nc3cnn(C4CC4)c3)ncc2C(F)F)cc1F` [Example 138, (S)—N-(1-cyanoethyl)-4-(2-((1-cyclopropyl-1H-pyrazol-4-yl)amino)-5-(difluoromethyl)pyrimidin-4-yl)-2-fluorobenzamide], the IC50 amounted to 432 nM against JAK1 (setting [3]) and 688 nM against JAK2 (setting [5]). Also, the microsomal CLint at 1 μM in data set [2] (setting [6]) stood at 8.5 µL/min/mg; in data set [1] (setting [4]), 10.7 µL/min/mg.

In the case of `C[C@@H](C#N)NC(=O)c1ccc(-c2nc(Nc3cnn(C4CCN(C(=O)C(C)(C)C)CC4)c3)ncc2Cl)cc1` [Example 99, (S)-4-(5-Chloro-2-((1-(1-pivaloylpiperidin-4-yl)-1H-pyrazol-4-yl)amino)pyrimidin-4-yl)-N-(1-cyanoethyl)benzamide], the IC50 against JAK1 (setting [3]) is 23.6 nM; against JAK2V617F, 1.32 nM. The microsomal CLint at 1 μM in data set [1] (setting [4]) worked out at 113 µL/min/mg.

`Cc1cnc(Nc2cnn(C3CCN(C)CC3)c2)nc1-c1ccc(C(=O)N[C@H](C)C#N)cc1` [Example 62, (R)—N-(1-cyanoethyl)-4-(5-methyl-2-((1-(1-methylpiperidin-4-yl)-1H-pyrazol-4-yl)amino)pyrimidin-4-yl)benzamide]: the IC50 against JAK1 (setting [3]) was 23.1 nM; against JAK2 (setting [5]), 71 nM; against TYK2, 215 nM. Further, in data set [1] (setting [4]), the microsomal CLint at 1 μM came to 10.6 µL/min/mg.

Consider `CC(C)(C)C(=O)N1CCC(n2cc(Nc3ncc(Cl)c(-c4ccc(C(=O)NCC#N)cc4)n3)cn2)CC1` [Example 98, 4-(5-Chloro-2-((1-(1-pivaloylpiperidin-4-yl)-1H-pyrazol-4-yl)amino)pyrimidin-4-yl)-N-(cyanomethyl)benzamide], for which the values for the IC50 against JAK1 (setting [3]) and against JAK2V617F were 17.8 nM and 1.3 nM, respectively. The microsomal CLint at 1 μM in data set [1] (setting [4]) worked out at 147 µL/min/mg.

As to `Cc1cnc(Nc2cnn(C3CCN(C)CC3)c2)nc1-c1ccc(C(=O)NCC#N)cc1` [Example 49, N-(cyanomethyl)-4-(5-methyl-2-((1-(1-methylpiperidin-4-yl)-1H-pyrazol-4-yl)amino)pyrimidin-4-yl)benzamide], the IC50 against JAK1 (setting [3]) was determined as 7.13 nM; on JAK2 (setting [5]), 0.81 nM; against JAK2V617F it was 57.2 nM; at TYK2, 38.2 nM.

Consider `N#CC1(CNC(=O)c2ccc(-c3nc(Nc4cnn(C5CC5)c4)ncc3Cl)cc2)CC1` [Example 60, 4-(5-Chloro-2-((1-cyclopropyl-1H-pyrazol-4-yl)amino)pyrimidin-4-yl)-N-((1-cyanocyclopropyl)methyl)benzamide], for which the half-inhibitory concentration (IC50) at JAK1 (setting [3]) was determined as 15.3 nM; against JAK2 (setting [5]) it was 30.6 nM. The microsomal CLint at 1 μM in data set [2] (setting [6]) was determined as 40.8 µL/min/mg; in data set [1] (setting [4]) it was 24.6 µL/min/mg.

As to `C[C@@H](C#N)NC(=O)c1ccc(-c2nc(Nc3cnn(CC#N)c3)ncc2F)cc1` [Example 53, (S)—N-(1-cyanoethyl)-4-(2-((1-(cyanomethyl)-1H-pyrazol-4-yl)amino)-5-fluoropyrimidin-4-yl)benzamide], the IC50 worked out at 69.7 nM on JAK1 (setting [3]), 293 nM on JAK2 (setting [5]), 658 nM against JAK2V617F and 198 nM at TYK2.

Turning to `CC(C)(C#N)CNC(=O)c1ccc(-c2nc(Nc3cnn(C4CCOCC4)c3)ncc2Cl)cc1` [Example 80, 4-(5-Chloro-2-((1-(tetrahydro-2H-pyran-4-yl)-1H-pyrazol-4-yl)amino)pyrimidin-4-yl)-N-(2-cyano-2-methylpropyl)benzamide], the 50% inhibitory concentration (IC50) amounted to 22.7 nM against JAK1 (setting [3]), 0.58 nM at JAK2 (setting [5]), 7.74 nM at JAK2V617F and 370 nM on TYK2.
